Laboratory results: the supplement of paper PMC10307832

Experiments:
Assay in all cases: relative viability (nuclei count vs DMSO), 5 days (fraction); higher = more cells survive
[1] = compound: CC(C)(C)c1nc(-c2cccc(NS(=O)(=O)c3c(F)cccc3F)c2F)c(-c2ccnc(N)n2)s1 [Dabrafenib] + CCNC(=O)c1noc(-c2cc(C(C)C)c(O)cc2O)c1-c1ccc(CN2CCOCC2)cc1 [Luminespib] (partner 0.01 µM)
How it was run: (§1)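 Relative viability equals treated-well nuclei counts divided by vehicle-well nuclei counts. Counts came from 4× images of lung cancer cell lines grown in 1536-well plates for 5 days after pin-tool dosing on the day after seeding. Dosing used one drug alone or a fixed anchor-drug dose plus five library-drug doses (not always all listed) in √10 steps, and values are medians of duplicate plates.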

[2] = compound: NC(=O)c1ccc(N(C(N)=O)c2c(F)cccc2F)nc1-c1ccc(F)cc1F [VX-702] + C[C@]1(O)C[C@@H](c2nc(-c3ccc4ccc(-c5ccccc5)nc4c3)c3c(N)nccn32)C1 [Linsitinib] (partner 1 µM)
How it was run: as §1

[3] = compound: NC(=O)c1ccc(N(C(N)=O)c2c(F)cccc2F)nc1-c1ccc(F)cc1F [VX-702] + Nc1ncn([C@H]2C[C@H](O)[C@@H](CO)O2)c(=O)n1 [Decitabine] (partner 2 µM)
How it was run: as §1

[4] = compound: NC(=O)c1ccc(N(C(N)=O)c2c(F)cccc2F)nc1-c1ccc(F)cc1F [VX-702] + CC(=O)Nc1cccc(-n2c(=O)n(C3CC3)c(=O)c3c(Nc4ccc(I)cc4F)n(C)c(=O)c(C)c32)c1 [Trametinib] (partner 0.02 µM)
How it was run: as §1

Cell Line	relative viability ([1]; first compound 0.003 µM)	relative viability ([1]; first compound 0.009487 µM)	relative viability ([1]; first compound 0.03 µM)	relative viability ([1]; first compound 0.3 µM)	relative viability ([2]; first compound 0.02 µM)	relative viability ([2]; first compound 0.2 µM)	relative viability ([2]; first compound 0.6325 µM)	relative viability ([2]; first compound 2 µM)	relative viability ([3]; first compound 0.02 µM)	relative viability ([3]; first compound 0.2 µM)	relative viability ([3]; first compound 0.6325 µM)	relative viability ([3]; first compound 2 µM)	relative viability ([4]; first compound 0.02 µM)	relative viability ([4]; first compound 0.2 µM)	relative viability ([4]; first compound 0.6325 µM)	relative viability ([4]; first compound 2 µM)	relative viability ([1]; first compound 0.09487 µM)
HCC-827	0.387	0.986	0.308	0.518	0.931	0.927	0.953	0.71	0.295	0.31	0.337	0.189	0.55	0.501	0.515	0.425	
HARA	0.83	0.818		0.726	1.02	0.877	0.927	0.797	0.567		0.512	0.523	0.818		0.776	0.63	0.621
NCI-H838	0.35	0.311	0.236	0.275	1.01	0.959	0.977	1.2	0.455	0.471	0.429	0.534	0.535	0.521	0.525	0.6	0.292
LCLC-103H	0.971	1.01	0.923	1.01	1.23	0.954	1.12	1	0.733	0.735	0.685	0.746	0.723	0.743	0.665	0.711	0.897
NCI-H2085	0.402	0.484	0.453	0.51	0.911	0.882	0.903	1.02	0.568	0.575	0.627	0.524	0.547	0.537	0.588	0.374	0.428
COR-L23	0.648	0.76	0.544	0.771	1.09	1.06	0.959	1.26	0.518	0.521	0.435	0.525	0.715	0.602	0.686	0.69	0.603
NCI-H322M		1.05	0.692	0.803	0.999	0.905	0.918	0.883	0.67	0.668	0.765	0.745	0.543	0.499	0.518	0.613	0.856
NCI-H1915	0.981	0.706	0.61	0.62	1.11	1.14	1.08	1.08	0.275	0.284	0.258	0.268	0.324	0.294	0.302	0.319	0.523
EPLC-272H	0.156	0.233	0.467	0.546	1	1.1	1.13	1.28	0.353	0.373	0.374	0.403	0.296	0.279	0.279	0.273	0.272
NCI-H1734		0.175	0.207	0.198	0.977	0.769	0.794	0.763	0.493	0.484	0.477	0.47	0.734	0.683	0.544	0.68	0.203
NCI-H2405		0.619		0.642	0.914	0.981	0.896	0.982	0.727	0.709	0.709	0.759	0.58	0.593	0.615	0.618	0.528
LK-2	0.185	0.187		0.157	0.711	0.436		0.542	0.26	0.329	0.218	0.318	0.591	0.696	0.568	0.788	0.153
NCI-H1666	0.988	0.995	1.04	1.11	0.878	0.86	0.747	0.855	0.655	0.691	0.751	0.536	0.89	0.819	0.883	0.739	0.997
NCI-H2347		0.508	0.231	0.458	0.968	0.977	0.896	0.986	0.643	0.606	0.683	0.639	0.188	0.314	0.384	0.282	0.71
NCI-H1944	0.707	0.839	0.733	0.717	1.07	1.06	1.31	0.903	0.431	0.437	0.46	0.431	0.426	0.401	0.398	0.378	0.682
A-427		1	0.772	1.14	1.1	1.05	1.17	1.17	0.623	0.503	0.54	0.542	0.752	0.707	0.687	0.724	0.744
NCI-H520	0.228	0.213	0.21	0.224	0.962	0.936	0.915	0.925	0.571	0.513	0.444	0.418	0.712	0.799	0.589	0.649	0.262
